The values that follow are results of earlier work, collected in PubChem BioAssay AID1259409 (Chemical Carcinogenesis Research Information System (CCRIS), 2018).

This data set relates to rodent chemically induced tumor inhibition, incidence and multiplicity. The experiment in a line: CCRIS tumor inhibitor studies. Particulars: Route [Inhibitor]: ORAL, Species: RAT.

Take `Cn1c(=O)c2c(ncn2C)n(C)c1=O`: the “tumour outcome (control, treated, inhibition, significance)” value was 100%, 100%, 0%, not significant (Carcinogen: 1,2-DIMETHYLHYDRAZINE, 540-73-8, Dose [Inhibitor]: 0, 600 MG/L IN DRINKING WATER FOR DURATION OF STUDY BEGINNING 7 D PRIOR TO CARCINOGEN TREATMENT (STUDY DURATION: 8 MO), Strain/Sex: BD6/MALE, Target Tissue: Type of Lesion: INTESTINE: TUMOR, Dose [Carcinogen]: 20 MG/KG BW 1/WK FOR 20 WK, Promoter: NONE USED); 100%, 78%, 22%, not significant (Carcinogen: 2-ACETYLAMINOFLUORENE, 53-96-3, Dose [Inhibitor]: 0, 0.1% IN DRINKING WATER FOR FIRST 12 WK (STUDY DURATION: 30 WK), Strain/Sex: ACI/MALE, Target Tissue: Type of Lesion: LIVER: HEPATOCELLULAR ADENOMA, Dose [Carcinogen]: 0.02% IN DIET FOR FIRST 12 WK); 44%, 22%, 50%, not significant (Carcinogen: 2-ACETYLAMINOFLUORENE, 53-96-3, Dose [Inhibitor]: 0, 0.1% IN DRINKING WATER FOR FIRST 12 WK (STUDY DURATION: 30 WK), Strain/Sex: ACI/MALE, Target Tissue: Type of Lesion: LIVER: HEPATOCELLULAR CARCINOMA, Dose [Carcinogen]: 0.02% IN DIET FOR FIRST 12 WK); 9%, 17%, -89%, not significant (Carcinogen: 2-ACETYLAMINOFLUORENE, 53-96-3, Dose [Inhibitor]: 0, 0.1% IN DRINKING WATER FOR FIRST 12 WK (STUDY DURATION: 30 WK), Strain/Sex: ACI/MALE, Target Tissue: Type of Lesion: SMALL INTESTINE: ADENOCARCINOMA, Dose [Carcinogen]: 0.02% IN DIET FOR FIRST 12 WK); 100%, 63%, 37%, p<0.01 (Carcinogen: 2-ACETYLAMINOFLUORENE, 53-96-3, Dose [Inhibitor]: 0, 0.15% IN DRINKING WATER FOR FIRST 12 WK (STUDY DURATION: 30 WK), Strain/Sex: ACI/MALE, Target Tissue: Type of Lesion: LIVER: HEPATOCELLULAR ADENOMA, Dose [Carcinogen]: 0.02% IN DIET FOR FIRST 12 WK); 44%, 8%, 82%, p<0.02 (Carcinogen: 2-ACETYLAMINOFLUORENE, 53-96-3, Dose [Inhibitor]: 0, 0.15% IN DRINKING WATER FOR FIRST 12 WK (STUDY DURATION: 30 WK), Strain/Sex: ACI/MALE, Target Tissue: Type of Lesion: LIVER: HEPATOCELLULAR CARCINOMA, Dose [Carcinogen]: 0.02% IN DIET FOR FIRST 12 WK). For the same molecule, the “tumour outcome (control, treated, inhibition, significance)” value is recorded as 9%, 13%, -44%, not significant (Carcinogen: 2-ACETYLAMINOFLUORENE, 53-96-3, Dose [Inhibitor]: 0, 0.15% IN DRINKING WATER FOR FIRST 12 WK (STUDY DURATION: 30 WK), Strain/Sex: ACI/MALE, Target Tissue: Type of Lesion: SMALL INTESTINE: ADENOCARCINOMA, Dose [Carcinogen]: 0.02% IN DIET FOR FIRST 12 WK); 100%, 35%, 65%, p<0.001 (Carcinogen: 2-ACETYLAMINOFLUORENE, 53-96-3, Dose [Inhibitor]: 0, 0.2% IN DRINKING WATER FOR FIRST 12 WK (STUDY DURATION: 30 WK), Strain/Sex: ACI/MALE, Target Tissue: Type of Lesion: LIVER: HEPATOCELLULAR ADENOMA, Dose [Carcinogen]: 0.02% IN DIET FOR FIRST 12 WK); 44%, 5%, 89%, p<0.02 (Carcinogen: 2-ACETYLAMINOFLUORENE, 53-96-3, Dose [Inhibitor]: 0, 0.2% IN DRINKING WATER FOR FIRST 12 WK (STUDY DURATION: 30 WK), Strain/Sex: ACI/MALE, Target Tissue: Type of Lesion: LIVER: HEPATOCELLULAR CARCINOMA, Dose [Carcinogen]: 0.02% IN DIET FOR FIRST 12 WK); 9%, 10%, -11%, not significant (Carcinogen: 2-ACETYLAMINOFLUORENE, 53-96-3, Dose [Inhibitor]: 0, 0.2% IN DRINKING WATER FOR FIRST 12 WK (STUDY DURATION: 30 WK), Strain/Sex: ACI/MALE, Target Tissue: Type of Lesion: SMALL INTESTINE: ADENOCARCINOMA, Dose [Carcinogen]: 0.02% IN DIET FOR FIRST 12 WK); 2/20 (10%), 0/20 (0%), 100%, not significant (Carcinogen: 2-AMINO-1-METHYL-6-PHENYL-1H-IMIDAZO[4,5-B]PYRID INE, 105650-23-5, Dose [Inhibitor]: 0, 0.1% IN DRINKING WATER FOR 52 WK (STUDY DURATION: 52 WK), Strain/Sex: F344/FEMALE, Target Tissue: Type of Lesion: MAMMARY GLAND: FIBROADENOMA, Dose [Carcinogen]: 0.02% IN THE DIET FOR 52 WK, Promoter: NONE USED); 8/20 (40%), 2/20 (10%), 75%, p< 0.05 (Carcinogen: 2-AMINO-1-METHYL-6-PHENYL-1H-IMIDAZO[4,5-B]PYRIDINE, 105650-23-5, Dose [Inhibitor]: 0, 0.1% IN DRINKING WATER FOR 52 WK (STUDY DURATION: 52 WK), Strain/Sex: F344/FEMALE, Target Tissue: Type of Lesion: MAMMARY GLAND: ADENOCARCINOMA, Dose [Carcinogen]: 0.02% IN THE DIET FOR 52 WK, Promoter: NONE USED). Under “Carcinogen: 2-AMINO-1-METHYL-6-PHENYLIMIDAZO[4,5-B]PYRIDINE [105650-23-5], Dose [Inhibitor]: 0.1% IN DRINKING WATER FOR 54 WK (STUDY DURATION: 54 WK), Strain/Sex: F344/DUCRJ/FEMALE, Target Tissue: Type of Lesion: COLON: ADENOMA OR ADENOCARCINOMA, Dose [Carcinogen]: 0.02% IN DIET FOR 54 WK (STUDY DURATION: 54 WK), Promoter: NONE”, the “tumour outcome (control, treated, inhibition, significance)” value was 3/20 (15%), 15/20 (75%), -400%, p<0.01.
